Laboratory results taken from ChEMBL document CHEMBL1201862, “PubChem BioAssay data set” (2004).
Structures can show the parent of a compound that is named as a salt. The source made the active and inactive calls.

What was measured:
[1] = target: Broad substrate specificity ATP-binding cassette transporter ABCG2 (Homo sapiens, UniProt Q9UNQ0); experiment: blockers of JC-1 export by ABCG2 – Ig-MXP3 cells, flow cytometry, dose response (AID 1690); type: functional
Vero = experiment: viability loss in Vero cells – cell-based, plate reader, cherry-pick samples, cytotoxicity control, dose response (AID 687020); type: functional; conditions: Chlorocebus sabaeus
[2] = viability loss in HEK293T cells – cell-based, cherry-picks, cytotoxicity control for HIV Vif inhibitor project, dose response (AID 652208); type: functional
[3] = mouse fibroblast viability loss – cell-based, cherry-pick samples, set 2, cytotoxicity control for T. cruzi growth inhibitor project, dose response (AID 651817); type: functional; conditions: NIH3T3
[4] = target: SWI/SNF-related matrix-associated actin-dependent regulator of chromatin subfamily A member 2 (Homo sapiens, UniProt P51531); experiment: Luminescence-based cell-based high throughput dose response assay to identify activators of the function of SWI/SNF related, matrix associated, actin dependent regulator of chromatin, subfamily a, member 2 (SMARCA2, BRM).; type: functional
[5] = viability of HCT116 lacking mutant beta-catenin – cell-based, human colon tumor, dose response (AID 1045); type: functional;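 also: HCT116 colon tumor cells with beta catenin knocked out; cells exposed to compound for 60 hours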
[6] = Counterscreen for activators of the function of SWI/SNF related, matrix associated, actin dependent regulator of chromatin, subfamily a, member 2 (SMARCA2, BRM): Luminescence-based cell-based high throughput dose response assay to identify non-selective compounds using the VP16 reporter assay.; type: functional
[7] = viability of PTEN-deleted HCT116 cells – cell-based, HCT116 PTEN knockout, dose response (AID 1047); type: functional;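 also: HCT116 colon tumor cells with PTEN knocked out; cells exposed to compound for 60 hours before readout; potency for loss of cell viability measured by luminescence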
Beta-lactamase [8] = target: Beta-lactamase (Salmonella choleraesuis (strain SC-B67), UniProt Q5J463); experiment: Epi-absorbance-based counterscreen for selective VIM-2 inhibitors: dose response biochemical high throughput screening assay to identify inhibitors of TEM-1 serine-beta-lactamase.
Beta-lactamase [9] = target: T1, Beta-lactamase (Pseudomonas aeruginosa, UniProt Q79MP6); experiment: inhibition of IMP-1 beta-lactamase activity – biochemical, epi-absorbance, selectivity assay for VIM-2 inhibitor project, dose response (AID 1920)
Beta Lactamase [10] = target: T2, Beta Lactamase (Pseudomonas aeruginosa, UniProt Q932Y6); experiment: VIM-2 CCF2 hydrolysis inhibition, assay artifact filter – biochemical, FRET readout, CCF2 substrate, artefact control for selective VIM-2 inhibitor project, dose response (AID 1926)
Beta-lactamase [11] = target: T1, Beta-lactamase; experiment: […] counterscreen for selective VIM-2 inhibitors: dose response biochemical high throughput screening assay to identify inhibitors of IMP-1 metallo-beta-lactamase.
Beta Lactamase [12] = target: T2, Beta Lactamase; experiment: concentration-dependent VIM-2 enzyme inhibition – biochemical, epi-absorbance readout, selective inhibitors, dose response (AID 1919)
[13] = target: T3, Replicative DNA helicase DnaB (Mycobacterium tuberculosis, UniProt P9WMR3); experiment: DnaB intein splicing inhibitors, dose response, biochemical, cell-free fluorescence (AID 449749); type: functional
T3 sequence (P9WMR3 whole entry): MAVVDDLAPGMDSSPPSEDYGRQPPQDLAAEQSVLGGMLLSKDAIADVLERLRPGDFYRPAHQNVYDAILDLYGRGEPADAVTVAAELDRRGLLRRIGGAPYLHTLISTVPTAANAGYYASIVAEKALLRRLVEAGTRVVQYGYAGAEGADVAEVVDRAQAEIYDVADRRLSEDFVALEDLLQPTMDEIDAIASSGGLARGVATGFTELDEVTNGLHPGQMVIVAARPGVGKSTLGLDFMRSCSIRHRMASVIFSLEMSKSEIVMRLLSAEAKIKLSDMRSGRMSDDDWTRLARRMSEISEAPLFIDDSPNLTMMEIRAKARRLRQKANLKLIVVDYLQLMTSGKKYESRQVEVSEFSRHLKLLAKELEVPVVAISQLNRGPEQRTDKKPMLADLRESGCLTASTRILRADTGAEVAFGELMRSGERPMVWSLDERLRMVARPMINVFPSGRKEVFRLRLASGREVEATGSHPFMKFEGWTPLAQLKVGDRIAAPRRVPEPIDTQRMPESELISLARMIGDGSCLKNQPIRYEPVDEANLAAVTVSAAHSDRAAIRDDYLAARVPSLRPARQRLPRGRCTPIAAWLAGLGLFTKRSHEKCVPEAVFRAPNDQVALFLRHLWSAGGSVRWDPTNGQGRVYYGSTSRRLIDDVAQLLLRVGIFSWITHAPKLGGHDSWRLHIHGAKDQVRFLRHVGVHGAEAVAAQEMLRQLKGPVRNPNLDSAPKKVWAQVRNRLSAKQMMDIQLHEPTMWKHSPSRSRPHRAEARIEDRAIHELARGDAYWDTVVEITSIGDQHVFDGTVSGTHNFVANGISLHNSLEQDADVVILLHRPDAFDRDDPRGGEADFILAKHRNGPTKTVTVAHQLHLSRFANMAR

[14] = target: T4, Sentrin-specific protease 8 (Homo sapiens, UniProt Q96LD8); type: functional
T4 sequence (Q96LD8 whole entry): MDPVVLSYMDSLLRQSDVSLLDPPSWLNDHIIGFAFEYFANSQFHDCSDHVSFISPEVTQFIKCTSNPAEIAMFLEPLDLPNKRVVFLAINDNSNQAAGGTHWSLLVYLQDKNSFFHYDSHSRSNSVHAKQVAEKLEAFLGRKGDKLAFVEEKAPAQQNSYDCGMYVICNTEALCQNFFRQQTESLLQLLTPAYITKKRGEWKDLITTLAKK

[15] = target: T4, Sentrin-specific protease 8; type: functional; remark: listed apart in the source
Protein RecA = target: T5, Protein RecA (Mycobacterium tuberculosis, UniProt P9WHJ3); experiment: Fluorescence Cell-Free Homogeneous Dose Retest to Identify Inhibitors of RecA-Intein Splicing Activity. [Related pubchem assays (depositor defined):AID2097, AID2223, AID489010, AID492950]; type: functional
T5 sequence (P9WHJ3 whole entry): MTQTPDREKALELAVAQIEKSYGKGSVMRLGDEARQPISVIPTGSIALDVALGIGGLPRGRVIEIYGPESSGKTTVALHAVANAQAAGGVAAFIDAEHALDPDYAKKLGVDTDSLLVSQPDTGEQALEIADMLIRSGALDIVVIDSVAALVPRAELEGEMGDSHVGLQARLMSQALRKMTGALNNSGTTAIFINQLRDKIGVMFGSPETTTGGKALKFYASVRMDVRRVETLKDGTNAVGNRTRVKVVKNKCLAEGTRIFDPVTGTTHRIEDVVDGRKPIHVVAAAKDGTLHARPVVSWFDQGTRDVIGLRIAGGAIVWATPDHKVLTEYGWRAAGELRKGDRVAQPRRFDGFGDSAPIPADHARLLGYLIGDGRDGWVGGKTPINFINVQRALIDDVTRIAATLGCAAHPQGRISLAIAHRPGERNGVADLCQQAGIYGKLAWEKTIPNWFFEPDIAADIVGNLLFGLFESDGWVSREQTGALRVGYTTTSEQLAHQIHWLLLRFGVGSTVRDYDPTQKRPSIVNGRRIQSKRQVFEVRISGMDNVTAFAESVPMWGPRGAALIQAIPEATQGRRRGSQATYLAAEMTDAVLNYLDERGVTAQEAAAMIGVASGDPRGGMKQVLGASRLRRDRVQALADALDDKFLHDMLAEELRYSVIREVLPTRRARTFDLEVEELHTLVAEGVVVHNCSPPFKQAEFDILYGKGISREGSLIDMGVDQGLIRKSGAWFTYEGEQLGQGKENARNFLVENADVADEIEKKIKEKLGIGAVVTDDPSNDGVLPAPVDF

[16] = target: 5-hydroxytryptamine receptor 2A (Mus musculus, UniProt P35363); type: functional, cell-based;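 also: CHO-K1 cells with tagged receptor and beta-arrestin; agonist potency measured as compound-induced activation of the receptor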
Mu-type opioid receptor = Mu-type opioid receptor (Homo sapiens, UniProt P35372); type: functional, cell-based;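 also: U2OS cells with beta-arrestin recruitment to OPRM1 by beta-gal complementation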
[17] = target: T6, Tyrosine-protein phosphatase non-receptor type 5 (Homo sapiens, UniProt P54829); experiment: PTPN5 enzyme inhibition – biochemical, fluorescence intensity, uHTS hits, confirmation (AID 602372); type: functional; conditions: read-out: IC50_Mean
T6 sequence (P54829 whole entry): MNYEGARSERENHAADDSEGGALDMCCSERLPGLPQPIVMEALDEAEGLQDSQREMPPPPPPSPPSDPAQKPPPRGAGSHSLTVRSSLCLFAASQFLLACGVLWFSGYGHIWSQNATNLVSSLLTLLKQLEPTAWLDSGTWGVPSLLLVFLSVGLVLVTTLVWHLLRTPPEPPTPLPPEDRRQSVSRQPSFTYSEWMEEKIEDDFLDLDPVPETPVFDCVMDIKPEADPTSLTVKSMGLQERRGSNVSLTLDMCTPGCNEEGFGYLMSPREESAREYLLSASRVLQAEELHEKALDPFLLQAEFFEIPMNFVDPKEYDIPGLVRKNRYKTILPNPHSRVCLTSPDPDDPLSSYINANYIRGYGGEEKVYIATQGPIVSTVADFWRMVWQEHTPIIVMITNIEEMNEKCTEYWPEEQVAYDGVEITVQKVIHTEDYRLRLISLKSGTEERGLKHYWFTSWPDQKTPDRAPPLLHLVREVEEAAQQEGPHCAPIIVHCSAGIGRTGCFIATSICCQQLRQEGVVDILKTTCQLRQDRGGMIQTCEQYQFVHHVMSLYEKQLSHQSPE

[18] = target: Dual specificity protein phosphatase 3 (Homo sapiens, UniProt P51452); experiment: VHR phosphatase inhibition, dose response, selectivity assay for STEP inhibitor project, biochemical (AID 602374); type: functional; conditions: read-out: IC50_Mean
[19] = target: Arf-GAP with SH3 domain, ANK repeat and PH domain-containing protein 1 (Homo sapiens, UniProt Q9ULH1); type: functional;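 also: biochemical fluorescence polarization dose–response screen measuring inhibition of ASAP1; ASAP1 GAP domain stimulating GTP hydrolysis by truncated human ARF1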
[20] = target: T7, Tyrosine-protein phosphatase non-receptor type 11 (Homo sapiens, UniProt Q06124); experiment: PTPN11 enzyme inhibitors – biochemical, selectivity assay for STEP inhibitor project, dose response (AID 602367); type: functional; conditions: read-out: IC50_Mean
T7 sequence (Q06124 whole entry): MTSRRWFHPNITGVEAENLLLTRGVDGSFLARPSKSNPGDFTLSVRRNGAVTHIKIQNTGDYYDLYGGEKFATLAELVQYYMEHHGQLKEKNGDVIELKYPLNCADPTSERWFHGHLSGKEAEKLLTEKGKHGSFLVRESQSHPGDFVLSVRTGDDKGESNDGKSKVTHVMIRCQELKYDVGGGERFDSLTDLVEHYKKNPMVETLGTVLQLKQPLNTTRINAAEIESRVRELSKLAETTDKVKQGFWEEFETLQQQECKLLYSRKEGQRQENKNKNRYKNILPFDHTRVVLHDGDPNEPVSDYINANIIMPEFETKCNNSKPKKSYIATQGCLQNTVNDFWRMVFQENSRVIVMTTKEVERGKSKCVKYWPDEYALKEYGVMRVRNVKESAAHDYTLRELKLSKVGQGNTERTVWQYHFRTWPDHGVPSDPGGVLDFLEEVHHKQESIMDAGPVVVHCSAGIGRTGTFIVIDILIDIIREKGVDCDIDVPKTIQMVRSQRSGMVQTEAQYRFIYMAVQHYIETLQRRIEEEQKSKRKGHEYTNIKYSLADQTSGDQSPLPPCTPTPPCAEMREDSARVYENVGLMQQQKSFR

[21] = target: T8, Carboxy-terminal domain RNA polymerase II polypeptide A small phosphatase 1 (Homo sapiens, UniProt Q9GZU7); experiment: CTDSP1 inhibitors, concentration-response, biochemical, absorbance readout, ultra-high-throughput screen actives (AID 540297); type: functional
T8 sequence (Q9GZU7 whole entry): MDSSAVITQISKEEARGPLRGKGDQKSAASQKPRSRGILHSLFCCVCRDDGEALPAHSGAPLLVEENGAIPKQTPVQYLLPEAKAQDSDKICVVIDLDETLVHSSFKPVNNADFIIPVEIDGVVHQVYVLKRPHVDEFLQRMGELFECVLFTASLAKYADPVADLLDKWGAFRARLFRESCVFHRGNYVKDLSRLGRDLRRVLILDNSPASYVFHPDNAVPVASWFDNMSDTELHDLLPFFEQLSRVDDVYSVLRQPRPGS

[22] = target: T9, Beta-2 adrenergic receptor (Homo sapiens, UniProt P07550); experiment: Dose response for HTS for Beta-2AR agonists via FAP method from Powderset1.; type: functional
[23] = target: T9, Beta-2 adrenergic receptor; experiment: ADRB2 activation measured by internalization – cell-based, FAP fluorogen, flow cytometry, cherry pick 1, dose response (AID 588763); type: functional

T1 sequence (Q79MP6 whole entry): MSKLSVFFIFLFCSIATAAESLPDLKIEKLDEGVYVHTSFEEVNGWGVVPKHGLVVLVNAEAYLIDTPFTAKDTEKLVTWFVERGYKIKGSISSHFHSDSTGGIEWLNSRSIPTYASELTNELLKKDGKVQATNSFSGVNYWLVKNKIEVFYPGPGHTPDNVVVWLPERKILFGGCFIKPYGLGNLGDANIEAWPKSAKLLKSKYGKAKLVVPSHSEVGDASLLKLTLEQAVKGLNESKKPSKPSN
T9 sequence (P07550 whole entry): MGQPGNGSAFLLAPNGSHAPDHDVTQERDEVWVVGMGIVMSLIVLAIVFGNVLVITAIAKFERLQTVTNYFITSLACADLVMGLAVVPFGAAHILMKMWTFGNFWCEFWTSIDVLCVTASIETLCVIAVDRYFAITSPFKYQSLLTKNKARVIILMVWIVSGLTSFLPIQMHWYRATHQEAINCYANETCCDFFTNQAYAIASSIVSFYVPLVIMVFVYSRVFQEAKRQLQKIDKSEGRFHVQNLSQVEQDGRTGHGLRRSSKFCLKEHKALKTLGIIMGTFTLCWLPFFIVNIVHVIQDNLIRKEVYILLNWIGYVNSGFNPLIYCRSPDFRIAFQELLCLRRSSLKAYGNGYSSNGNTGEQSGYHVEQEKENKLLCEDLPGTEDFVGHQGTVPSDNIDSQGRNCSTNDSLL
T2 sequence (Q932Y6 whole entry): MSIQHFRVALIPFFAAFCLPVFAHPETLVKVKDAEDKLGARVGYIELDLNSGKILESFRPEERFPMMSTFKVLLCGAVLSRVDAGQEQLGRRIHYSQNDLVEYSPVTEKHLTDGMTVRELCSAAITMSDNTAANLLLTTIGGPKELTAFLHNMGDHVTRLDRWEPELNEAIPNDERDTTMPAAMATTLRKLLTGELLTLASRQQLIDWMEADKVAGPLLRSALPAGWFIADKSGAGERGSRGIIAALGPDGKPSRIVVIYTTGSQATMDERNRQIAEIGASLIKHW
Sequence of Broad substrate specificity ATP-binding cassette transporter ABCG2 (Q9UNQ0 whole entry): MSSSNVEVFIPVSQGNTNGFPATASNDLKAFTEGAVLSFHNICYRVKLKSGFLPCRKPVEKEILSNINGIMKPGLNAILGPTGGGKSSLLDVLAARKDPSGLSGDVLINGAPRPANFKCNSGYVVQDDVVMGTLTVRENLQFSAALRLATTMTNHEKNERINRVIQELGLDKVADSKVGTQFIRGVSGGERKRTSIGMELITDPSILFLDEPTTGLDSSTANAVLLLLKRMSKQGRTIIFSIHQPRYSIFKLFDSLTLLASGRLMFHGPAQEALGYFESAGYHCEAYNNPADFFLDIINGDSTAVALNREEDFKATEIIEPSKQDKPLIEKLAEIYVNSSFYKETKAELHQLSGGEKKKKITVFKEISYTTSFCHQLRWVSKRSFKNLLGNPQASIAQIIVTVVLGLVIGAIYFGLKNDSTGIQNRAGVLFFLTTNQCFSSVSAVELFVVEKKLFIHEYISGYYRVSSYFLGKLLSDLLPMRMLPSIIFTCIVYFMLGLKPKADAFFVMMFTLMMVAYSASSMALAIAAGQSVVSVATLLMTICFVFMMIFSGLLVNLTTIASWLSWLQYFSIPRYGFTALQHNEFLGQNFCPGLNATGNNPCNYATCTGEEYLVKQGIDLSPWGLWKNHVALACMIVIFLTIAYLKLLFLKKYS
Sequence of 5-hydroxytryptamine receptor 2A (P35363 whole entry): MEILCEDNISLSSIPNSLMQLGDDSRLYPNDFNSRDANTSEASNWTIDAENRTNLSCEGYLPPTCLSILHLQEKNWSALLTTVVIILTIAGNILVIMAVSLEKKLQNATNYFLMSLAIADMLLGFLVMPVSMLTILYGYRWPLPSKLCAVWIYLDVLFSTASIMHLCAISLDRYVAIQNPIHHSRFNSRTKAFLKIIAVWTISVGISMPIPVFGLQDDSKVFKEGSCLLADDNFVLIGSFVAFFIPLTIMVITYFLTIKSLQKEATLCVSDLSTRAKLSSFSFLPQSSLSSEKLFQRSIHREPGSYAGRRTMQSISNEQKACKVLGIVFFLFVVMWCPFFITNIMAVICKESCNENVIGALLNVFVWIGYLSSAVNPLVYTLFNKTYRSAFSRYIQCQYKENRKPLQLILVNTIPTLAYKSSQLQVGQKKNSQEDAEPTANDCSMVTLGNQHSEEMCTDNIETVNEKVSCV
Sequence of SWI/SNF-related matrix-associated actin-dependent regulator of chromatin subfamily A member 2 (P51531 whole entry): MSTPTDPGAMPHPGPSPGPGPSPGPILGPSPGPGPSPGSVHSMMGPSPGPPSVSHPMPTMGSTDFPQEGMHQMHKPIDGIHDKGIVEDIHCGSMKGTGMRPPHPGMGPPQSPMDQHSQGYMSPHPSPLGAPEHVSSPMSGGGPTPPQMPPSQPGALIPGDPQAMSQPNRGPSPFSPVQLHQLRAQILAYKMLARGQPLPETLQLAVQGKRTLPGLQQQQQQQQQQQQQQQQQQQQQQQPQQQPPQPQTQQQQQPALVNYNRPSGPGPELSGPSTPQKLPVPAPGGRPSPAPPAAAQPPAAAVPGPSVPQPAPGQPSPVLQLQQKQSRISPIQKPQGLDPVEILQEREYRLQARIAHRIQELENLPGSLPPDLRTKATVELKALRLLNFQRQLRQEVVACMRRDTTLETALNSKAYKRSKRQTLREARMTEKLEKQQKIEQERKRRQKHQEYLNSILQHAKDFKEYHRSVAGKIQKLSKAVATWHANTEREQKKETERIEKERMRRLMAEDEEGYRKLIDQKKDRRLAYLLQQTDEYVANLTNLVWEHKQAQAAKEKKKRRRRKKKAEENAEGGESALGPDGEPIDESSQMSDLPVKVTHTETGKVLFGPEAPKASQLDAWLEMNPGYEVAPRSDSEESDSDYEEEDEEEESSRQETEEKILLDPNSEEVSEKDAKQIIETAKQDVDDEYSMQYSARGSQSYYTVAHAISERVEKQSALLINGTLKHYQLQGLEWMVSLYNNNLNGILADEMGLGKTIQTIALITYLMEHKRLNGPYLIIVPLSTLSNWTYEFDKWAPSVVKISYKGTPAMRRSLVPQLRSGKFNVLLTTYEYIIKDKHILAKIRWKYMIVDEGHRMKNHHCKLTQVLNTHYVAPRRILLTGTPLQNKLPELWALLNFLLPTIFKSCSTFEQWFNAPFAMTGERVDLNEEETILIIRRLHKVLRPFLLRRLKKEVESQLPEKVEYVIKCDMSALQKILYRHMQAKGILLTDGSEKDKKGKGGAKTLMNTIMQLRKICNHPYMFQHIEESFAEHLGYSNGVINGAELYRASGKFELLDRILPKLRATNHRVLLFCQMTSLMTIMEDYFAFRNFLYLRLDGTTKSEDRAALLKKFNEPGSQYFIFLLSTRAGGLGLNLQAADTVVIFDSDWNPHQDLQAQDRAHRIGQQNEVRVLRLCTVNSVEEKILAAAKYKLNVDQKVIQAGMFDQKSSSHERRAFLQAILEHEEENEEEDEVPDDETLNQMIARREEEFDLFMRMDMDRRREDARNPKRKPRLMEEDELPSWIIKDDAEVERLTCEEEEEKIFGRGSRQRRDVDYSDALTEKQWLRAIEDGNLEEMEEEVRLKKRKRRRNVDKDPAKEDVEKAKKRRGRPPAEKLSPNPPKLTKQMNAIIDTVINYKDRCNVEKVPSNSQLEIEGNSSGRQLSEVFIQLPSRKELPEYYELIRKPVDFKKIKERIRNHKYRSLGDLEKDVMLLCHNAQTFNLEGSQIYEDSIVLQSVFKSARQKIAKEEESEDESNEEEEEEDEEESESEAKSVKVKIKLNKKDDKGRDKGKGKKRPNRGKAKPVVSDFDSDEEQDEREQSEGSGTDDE
Sequence of Mu-type opioid receptor (P35372 whole entry): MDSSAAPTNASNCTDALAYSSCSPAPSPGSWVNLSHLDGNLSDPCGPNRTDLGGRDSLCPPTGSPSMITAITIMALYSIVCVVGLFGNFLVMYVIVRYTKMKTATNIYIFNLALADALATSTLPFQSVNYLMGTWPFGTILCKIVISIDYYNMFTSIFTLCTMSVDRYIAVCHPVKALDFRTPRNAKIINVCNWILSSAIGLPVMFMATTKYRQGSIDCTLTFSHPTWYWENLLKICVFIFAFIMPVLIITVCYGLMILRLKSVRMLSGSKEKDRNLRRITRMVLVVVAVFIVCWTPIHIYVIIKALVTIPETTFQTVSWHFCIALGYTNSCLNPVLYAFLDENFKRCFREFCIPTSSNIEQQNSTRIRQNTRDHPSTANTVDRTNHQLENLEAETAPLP
Sequence of Beta-lactamase (Salmonella choleraesuis (strain SC-B67), UniProt Q5J463) (Q5J463 whole entry): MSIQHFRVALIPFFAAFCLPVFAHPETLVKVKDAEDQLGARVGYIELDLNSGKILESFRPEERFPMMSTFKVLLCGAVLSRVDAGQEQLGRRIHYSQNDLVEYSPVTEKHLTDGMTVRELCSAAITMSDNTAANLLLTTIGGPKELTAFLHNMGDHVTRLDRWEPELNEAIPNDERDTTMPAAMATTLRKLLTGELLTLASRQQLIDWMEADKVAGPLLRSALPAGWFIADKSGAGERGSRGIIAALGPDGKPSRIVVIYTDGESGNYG
Sequence of Dual specificity protein phosphatase 3 (P51452 whole entry, the tested form may be a part): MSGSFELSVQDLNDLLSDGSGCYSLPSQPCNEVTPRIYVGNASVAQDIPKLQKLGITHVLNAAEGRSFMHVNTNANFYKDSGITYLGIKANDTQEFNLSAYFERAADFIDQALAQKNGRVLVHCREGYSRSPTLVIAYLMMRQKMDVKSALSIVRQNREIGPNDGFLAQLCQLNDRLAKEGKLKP

Structure (SMILES): COc1ccc2cc(C(=O)OC(C)C)sc(=O)c2c1OC
- EC50 [1]: 24.4 µM (inactive)

Structure (SMILES): N#Cc1ccc(CN2CCN(C(=O)CC(NC(=O)c3ccccc3)c3ccccc3)CC2)cc1 (stereo unspecified)
- AC50 (Vero): 38.1 µM (active)

Structure (SMILES): Cc1ccc(/C=C2/CNC/C(=C/c3ccc(C)cc3)C2=O)cc1
- AC50 [2]: 10.3 µM (active)

Structure (SMILES): C[C@H](CO)N1C[C@H](C)[C@H](CN(C)Cc2ccc(Cl)c(Cl)c2)Oc2c(NC(=O)Nc3ccc(C(F)(F)F)cc3)cccc2C1=O
- AC50 [3]: 12.9 µM (active)

Structure (SMILES): OC1CCCN(Cc2ccc3ccc4cccc5ccc2c3c45)C1 (stereo unspecified)
- EC50 [4]: > 10.1 µM (inactive)
- EC50 [5]: 8.21 µM (active)
- EC50 [6]: > 91.2 µM (inactive)
- EC50 [7]: 8.96 µM (active)

Structure (SMILES): O=C(O)COc1ccccc1/C=N/n1c(S)nnc1C1CCCCC1
- IC50 (Beta-lactamase [8]): > 59.6 µM (inactive)
- IC50 (Beta-lactamase [9]): > 59.6 µM (inactive)
- IC50 (Beta Lactamase [10]): 8.62 µM (active)
- IC50 (Beta-lactamase [11]): > 59.6 µM (inactive)
- IC50 (Beta Lactamase [12]): 23.1 µM (inactive)

Structure (SMILES): Cc1cc(=O)n(-c2ccc(O)cc2)[nH]1
- AC50 [13]: 2.3 µM (active)
- IC50 [14]: 17.2 µM (active)
- IC50 [15]: 19.1 µM (active)
- EC50 (Protein RecA): 0.774 µM (active)

Structure (SMILES): CCCN1CCC[C@@H](c2cccc(O)c2)C1 [PRECLAMOL HYDROCHLORIDE]
- EC50 [16]: 76 µM (inactive)
- EC50 (Mu-type opioid receptor): 92.4 µM (inactive)

Structure (SMILES): Cc1nnc2sc(-c3ccc(NC(=O)c4ccc(-c5ccc(Cl)cc5Cl)o4)cc3)nn12
- IC50 [17]: > 80 µM (inactive)
- IC50 [18]: 0.716 µM (active)
- IC50 [19]: 2.48 µM (active)
- IC50 [20]: 0.409 µM (active)

Structure (SMILES): Cc1ccc(SCC(=O)Nc2ccc(-c3nnc(-c4ccco4)o3)cc2)cc1
- IC50 [21]: 9.04 µM (active)
- EC50 [22]: 0.713 µM (active)
- EC50 [23]: 0.629 µM (active)
